How the values were obtained:
Type in all cases: in vivo
Setaria faberi (SETFA) [1] = assay: Post-emergence herbicidal glasshouse test on Setaria faberi; settings: for POST Application SETFA herbicidal damage (five point scale): post-emergence, 1000 g/h, evaluated after 13 days; for POST Application SETFA: post-emergence application, Setaria faberi, damage score 1-5
Method in brief: (§1)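 Pre-emergence treatment came one day after sowing, post-emergence treatment after eight days' growth; both used 1000 g/h in a 0.5% Tween 20 acetone/water vehicle. Percent damage, scored 1–5, was read 13 days later.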

Solanum nigrum (SOLNI) [2] = assay: Post-emergence herbicidal glasshouse test on Solanum nigrum; settings: for POST Application SOLNI herbicidal damage (five point scale): post-emergence, 1000 g/h, evaluated after 13 days; for POST Application SOLNI: post-emergence application, Solanum nigrum, damage score 1-5
Method in brief: as §1

[3] = test system: Echinochloa crus-galli (ECHCG); assay: Post-emergence herbicidal glasshouse test on Echinochloa crus-galli; settings: for POST Application ECHCG herbicidal damage (five point scale): post-emergence, 1000 g/h, evaluated after 13 days; for POST Application ECHCG: post-emergence application, Echinochloa crus-galli, damage score 1-5
Method in brief: as §1

Setaria faberi (SETFA) [4] = assay: Pre-emergence herbicidal glasshouse test on Setaria faberi; settings: for PRE Application SETFA herbicidal damage (five point scale): pre-emergence, 1000 g/h, evaluated after 13 days; for PRE Application SETFA: pre-emergence application, Setaria faberi, damage score 1-5
Method in brief: as §1

Solanum nigrum (SOLNI) [5] = assay: Pre-emergence herbicidal glasshouse test on Solanum nigrum; settings: for PRE Application SOLNI herbicidal damage (five point scale): pre-emergence, 1000 g/h, evaluated after 13 days; for PRE Application SOLNI: pre-emergence application, Solanum nigrum, damage score 1-5
Method in brief: as §1

[6] = test system: Alopecurus myosuroides (ALOMY); assay: Pre-emergence herbicidal glasshouse test on Alopecurus myosuroides; settings: for PRE Application ALOMY herbicidal damage (five point scale): pre-emergence, 1000 g/h, evaluated after 13 days; for PRE Application ALOMY: pre-emergence application, Alopecurus myosuroides, damage score 1-5
Method in brief: as §1

[7] = test system: Ipomoea hederacea (IPOHE); assay: Post-emergence herbicidal glasshouse test on Ipomoea hederacea; settings: for POST Application IPOHE herbicidal damage (five point scale): post-emergence, 1000 g/h, evaluated after 13 days; for POST Application IPOHE: post-emergence application, Ipomoea hederacea, damage score 1-5
Method in brief: as §1

[8] = test system: Alopecurus myosuroides (ALOMY); assay: Post-emergence herbicidal glasshouse test on Alopecurus myosuroides; settings: for POST Application ALOMY herbicidal damage (five point scale): post-emergence, 1000 g/h, evaluated after 13 days; for POST Application ALOMY: post-emergence application, Alopecurus myosuroides, damage score 1-5
Method in brief: as §1

[9] = test system: Amaranthus retoflexus (AMARE); assay: Pre-emergence herbicidal glasshouse test on Amaranthus retoflexus; settings: for PRE Application AMARE herbicidal damage (five point scale): pre-emergence, 1000 g/h, evaluated after 13 days; for PRE Application AMARE: pre-emergence application, Amaranthus retoflexus, damage score 1-5
Method in brief: as §1

[10] = test system: Ipomoea hederacea (IPOHE); assay: Pre-emergence herbicidal glasshouse test on Ipomoea hederacea; settings: for PRE Application IPOHE herbicidal damage (five point scale): pre-emergence, 1000 g/h, evaluated after 13 days; for PRE Application IPOHE: pre-emergence application, Ipomoea hederacea, damage score 1-5
Method in brief: as §1

[11] = test system: Amaranthus retoflexus (AMARE); assay: Post-emergence herbicidal glasshouse test on Amaranthus retoflexus; settings: for POST Application AMARE herbicidal damage (five point scale): post-emergence, 1000 g/h, evaluated after 13 days; for POST Application AMARE: post-emergence application, Amaranthus retoflexus, damage score 1-5
Method in brief: as §1

[12] = test system: Echinochloa crus-galli (ECHCG); assay: Pre-emergence herbicidal glasshouse test on Echinochloa crus-galli; settings: for PRE Application ECHCG herbicidal damage (five point scale): pre-emergence, 1000 g/h, evaluated after 13 days; for PRE Application ECHCG: pre-emergence application, Echinochloa crus-galli, damage score 1-5
Method in brief: as §1

Compound	POST Application SETFA herbicidal damage (five point scale) (Setaria faberi (SETFA) [1])	POST Application SOLNI herbicidal damage (five point scale) (Solanum nigrum (SOLNI) [2])	POST Application ECHCG herbicidal damage (five point scale) [3]	PRE Application SETFA herbicidal damage (five point scale) (Setaria faberi (SETFA) [4])	PRE Application SOLNI herbicidal damage (five point scale) (Solanum nigrum (SOLNI) [5])	PRE Application ALOMY herbicidal damage (five point scale) [6]	POST Application IPOHE herbicidal damage (five point scale) [7]	POST Application ALOMY herbicidal damage (five point scale) [8]	PRE Application AMARE herbicidal damage (five point scale) [9]	PRE Application IPOHE herbicidal damage (five point scale) [10]	POST Application AMARE herbicidal damage (five point scale) [11]	PRE Application ECHCG herbicidal damage (five point scale) [12]	POST Application SETFA (Setaria faberi (SETFA) [1])	POST Application SOLNI (Solanum nigrum (SOLNI) [2])	POST Application ECHCG [3]	PRE Application SETFA (Setaria faberi (SETFA) [4])	PRE Application SOLNI (Solanum nigrum (SOLNI) [5])	PRE Application ALOMY [6]	POST Application IPOHE [7]	POST Application ALOMY [8]	also measured
C=CCn1c(C(F)(F)F)ccc(-c2cnn(C)c(=O)c2O)c1=O [Compound 9.011]	5 (5=80-100% damage)	5 (5=80-100% damage)	5 (5=80-100% damage)	3 (3=40-59% damage)	1 (1=0-19% damage)	2 (2=20-39% damage)	4 (4=60-79% damage)	4 (4=60-79% damage)	4 (4=60-79% damage)	1 (1=0-19% damage)	5 (5=80-100% damage)	5 (5=80-100% damage)	–	–	–	–	–	–	–	–	–
COc1ccc(-n2cccc(-c3cnn(C)c(=O)c3O)c2=O)cc1 [Compound 9.016]	3 (3=40-59% damage)	5 (5=80-100% damage)	4 (4=60-79% damage)	1 (1=0-19% damage)	1 (1=0-19% damage)	2 (2=20-39% damage)	2 (2=20-39% damage)	3 (3=40-59% damage)	1 (1=0-19% damage)	1 (1=0-19% damage)	5 (5=80-100% damage)	1 (1=0-19% damage)	–	–	–	–	–	–	–	–	–
Cc1ccc(-n2cccc(-c3cnn(C)c(=O)c3O)c2=O)cc1 [Compound 9.017]	2 (2=20-39% damage)	4 (4=60-79% damage)	5 (5=80-100% damage)	1 (1=0-19% damage)	1 (1=0-19% damage)	2 (2=20-39% damage)	2 (2=20-39% damage)	2 (2=20-39% damage)	1 (1=0-19% damage)	2 (2=20-39% damage)	3 (3=40-59% damage)	1 (1=0-19% damage)	–	–	–	–	–	–	–	–	–
CCCn1c(-c2cccc(Cl)c2)ncc(-c2cnn(C)c(=O)c2O)c1=O [Compound 10.002]	–	–	–	–	–	–	–	–	–	–	–	–	1 (1=0-19% damage)	5 (5=80-100% damage)	2 (2=20-39% damage)	1 (1=0-19% damage)	1 (1=0-19% damage)	1 (1=0-19% damage)	4 (4=60-79% damage)	1 (1=0-19% damage)	PRE Application AMARE [9]: 4 (4=60-79% damage); PRE Application IPOHE [10]: 1 (1=0-19% damage); POST Application AMARE [11]: 5 (5=80-100% damage); PRE Application ECHCG [12]: 1 (1=0-19% damage)
Cn1ncc(-c2cnc(-c3cccc(F)c3)n(C3CCCCC3)c2=O)c(O)c1=O [Compound 10.003, 3-cyclohexyl-2-(3-fluorophenyl)-5-(5-hydroxy-1-methyl-6-oxo-pyridazin-4-yl)pyrimidin-4-one]	–	–	–	–	–	–	–	–	–	–	–	–	4 (4=60-79% damage)	5 (5=80-100% damage)	5 (5=80-100% damage)	1 (1=0-19% damage)	1 (1=0-19% damage)	1 (1=0-19% damage)	4 (4=60-79% damage)	1 (1=0-19% damage)	PRE Application AMARE [9]: 5 (5=80-100% damage); PRE Application IPOHE [10]: 1 (1=0-19% damage); POST Application AMARE [11]: 5 (5=80-100% damage); PRE Application ECHCG [12]: 1 (1=0-19% damage)

— patent publication US9693556B2, “Herbicidal pyridazinone derivatives” (SYNGENTA LIMITED, priority 2011, dated 2017)
